In patent US7125958B1, “Malaria polypeptides” (priority 1997, dated 2006):
Entries after “also recorded” stand apart in the source; their conditions may differ. Where two headings read alike, the source gives them in different places.

Tests used:
FCR3S1 rosettes [1] = assay: Rosette disruption assay, laboratory strain FCR3S1; format: cell-based, Plasmodium falciparum; details: for reduction of rosette disruption efficiency compared to native heparin: modified heparin; for rosette disrupting effect of heparin disaccharides: not shown; for rosette reversion by disaccharide: at 45 mM; for sensitivity of FCR3S1 rosettes to the compound: 30 minutes at 37° C.
Source text: (§1) Parasites and rosetting—Two distinct highly resetting P. Falciparum laboratory stains were used: FCR3S1 (previously named R^+PA1) and TM 284 (isolated in Thailand, 1990). Parasites were cultivated according to standard procedures (Udomsangpetch et al. 1989). Field isolates were obtained from patients attending the Albert Schweitzer Hospital, Lambaréné, Gabon between April and June 1996. […] A venous or capillary blood sample was taken after patients or parents informed consent. Blood was washed three times with RPMI and cultivated according to standard procedures (Udomsangpetch et al. 1989). Assessment for parasite growth and resetting was made every 6–8 hours using a Leitz UV-light microscope. Briefly, an aliquot of parasite culture was mixed with a small amount of acridine orange and the sample was analyzed. Assays were performed on rosetting isolates when the majority of parasites in culture had reached the trophozoite stage. The resetting rate was expressed as the number of infected erythrocytes in rosettes relative to the total number of late stage infected erythrocytes. Three hundred infected cells were counted. Parasitemia was calculated as the number of infected erythrocytes relative to the number of uninfected erythrocytes.
(§2) For laboratory stains, parasite cultures with rosetting rates of 50–70% and parasitemia 5–8% were used Aliquots (12.5–25 μl) of parasite cultures were mixed with equal amounts of sulfated glycoconjugate compound in RPMI in a 96-well microtiter plate, at final concentrations indicated After incubation for 30 minutes at 37° C. assessment for resetting was made as described above. The resetting rate was compared to that of culture mixed with RPMI.

FCR3S1 rosetting = format: cell-based, Plasmodium falciparum; details: compared to mock treated control cultures
TM 284 rosetting = format: cell-based, Plasmodium falciparum; details: compared to mock treated control cultures
[2] = system: uninfected RBC rosette binding capacity; format: cell-based, Plasmodium falciparum; details: compared to non-treated RBC
FCR3S1.2 rosettes = assay: Rosette disruption assay, FCR3S1.2; format: cell-based, Plasmodium falciparum; details: incubated with GAGs for 1 h at 37° C., compared to control culture
Protocol: FIG. 5. Effect of glycosaminoglycans (GAGS) on P. falciparum resetting. […] FCR3S1.2 cultures were incubated with GAGs for 1 h at 37° C. and compared to control culture. Results are the means and standard error of three separate experiments.
The assay was performed essentially as described (Carlson, J. and M. Wahlgren, 1992. Plasmodium falciparum erythrocytes resetting is mediated by promiscuous lectin-like interactions. J. Exp. Med., 176, 1311–1317). The recombinant fission proteins ([…] in PBS of DBL-1-GST or ATS-GST) were added to 25 μl aliquots of a ≈80% rosetting culture of FCR3S1.2 in a micro-titre plate. The mixtures were incubated for 30 min. at 37° C. after which the rosetting rate was scored and compared to mock treated controls after staining with acridine orange.

FCR3S1 rosettes [3] = format: cell-based, Plasmodium falciparum
TM 284 rosettes [4] = format: cell-based, Plasmodium falciparum
TM 284 rosettes [5] = assay: Rosette disruption assay, laboratory strain TM 284; format: cell-based, Plasmodium falciparum; details: for sensitivity of TM 284 rosettes to the compound: relative to FCR3S1
Source text: as §1, §2

[6] = system: DBL-1-GST fusion protein (FCR3S1.2-PfEMP1); assay: Heparin blocking assay: inhibition of DBL-1-GST binding to heparin-sepharose by GAGs; design: species or system Plasmodium falciparum; details: GAG titrated from 10 to 0.5 mg/ml, SDS-PAGE
Protocol: The potential binding of the fusion proteins to heparin was studied by mixing either DBL-1-GST, ATS-GST fusion protein or GST alone (20 μl, 150 μg/ml in PBS) with 20 μl of 50% heparin-sepharose (Pharmacia) and incubating for 5 min at room temperature in the absence of serum; binding to uncoupled sepharose was used as control. The heparin-sepharose and protein mixture was washed 3 times in large volumes of PBST buffer (PBS plus 0.05% Tween-20) before extracting bound proteins in loading-buffer for 10% SDS-PAGE. Inhibition of DBL-1-GST fission protein binding to heparin with heparin, heparan sulfate or chondroitin sulfate (Lövens Kemiske Fabrik, Denmark, more than 90% pure) was also tested. Twenty μl of 150 μg/ml DBL-1-GST fusion protein was mixed separately for 5 minutes with an equal volume of heparin, heparan sulfate, or chondroitin sulfate, titrated from 10 to 0.5 mg/ml, before the addition of heparin sepharose. The inhibitory activities were checked by SDS-PAGE.

[7] = system: rosettes of wild isolates; assay: Rosette disruption assay, wild (patient) isolates; format: cell-based, Plasmodium falciparum; details: for relative effectiveness as rosette disrupter on the whole collection of wild isolates: thirtytwo patient isolates; for rosette disruption of wild / fresh isolates: both groups of isolates
Source text: as §1, §2

[8] = system: DBL-1-GST fusion protein (FCR3S1.2-PfEMP1); assay: Erythrocyte blocking assay: inhibition of DBL-1-GST binding to RBC by GAGs; format: cell-based, Plasmodium falciparum; details: GAG titrated from 20 to 8 mg/ml
Protocol: Ten-well immunofluorescence glass-slides were precoated with 10% poly-L-lysine in PBS for 30 min. Monolayers of RBC were made by addition of 20 μl of 0.5% 3× washed bloodgroup O Rh^+RBC in PBS to each well. Twenty μl DBL-1-GST, ATS-GST or GST alone (80 μg/ml) in PBS was added to the wells for 30 min. The DBL-1-GST fusion protein was in subsequent experiments incubated in the presence of heparin, heparan sulfate or chondroitin sulfate (titrated from 20 to 8 mg/ml) to study the inhibitory activity of each GAG. Slides were washed 3 times with PBS and the fusion protein-binding was detected with the biotin-labelled anti-GST mAb and an EXTRAVIDIN (a modified avidin) FITC conjugate (Sigma). The fluorescence was assessed in a Nikon Optiphot-2 UV microscope, using a ×10 ocular and an oil lens with a magnification of ×100.

[9] = system: rosettes of fresh P. falciparum-isolates; details: cited from earlier work

In the case of 2-O-desulfated heparin, the “reduction of rosette disruption efficiency compared to native heparin” value (FCR3S1 rosettes [1]) is reported as roughly 10 fold.
For 6-O-desulfated heparin, the “reduction of rosette disruption efficiency compared to native heparin” value (FCR3S1 rosettes [1]) was roughly 10 fold.
In the case of `O=C(O)C1=C[C@H](O)[C@@H](OS(=O)(=O)O)[C@H](O[C@H]2[C@H](O)[C@@H](NS(=O)(=O)O)[C@@H](O)O[C@@H]2COS(=O)(=O)O)O1` [I-S, ΔHexA(2-OSO3)-GlcNSO3(6-OSO3)], the “rosette disruption by disaccharide titrated against heparin” value (FCR3S1 rosettes [1]; 30 mM disaccharide, preliminary experiment) is reported as “disrupted to the same extent as with heparin at 1 mg/ml”.
For `N[C@H]1C(O)O[C@H](COS(=O)(=O)O)[C@@H](O[C@@H]2OC(C(=O)O)=C[C@H](O)[C@H]2O)[C@@H]1O` (stereo partly shown) [II-H, ΔHexA-GlcN(6-OSO3)], the “rosette disrupting effect of heparin disaccharides” value (shortened to “rosette disrupting effect”) (FCR3S1 rosettes [1]) was “no rosette disrupting effect”.
With `NC1C(O)OC(CO)C(OC2OC(C(=O)O)=CC(O)C2OS(=O)(=O)O)C1O` (stereo not shown) [III-H, ΔHexA(2-OSO3-GlcN)] the “rosette disrupting effect” value (FCR3S1 rosettes [1]) was “no rosette disrupting effect”.
In the case of `CC(=O)NC1C(O)OC(CO)C(OC2OC(C(=O)O)=CC(O)C2O)C1O` (stereo not shown) [IV-A, ΔHexA-ClcNAc], the “rosette reversion by disaccharide” value (FCR3S1 rosettes [1]) is reported as “completely lacked effect”.
With `N[C@H]1C(O)O[C@H](CO)[C@@H](O[C@@H]2OC(C(=O)O)=C[C@H](O)[C@H]2O)[C@@H]1O` (stereo partly shown) [IV-H, ΔHexA-GlcN] the “rosette disrupting effect” value (FCR3S1 rosettes [1]) was “no rosette disrupting effect”.
In the case of `O=C(O)C1=C[C@H](O)[C@@H](O)[C@H](O[C@H]2[C@H](O)[C@@H](NS(=O)(=O)O)C(O)O[C@@H]2CO)O1` (stereo partly shown) [IV-S, ΔHexA-GlcNSO3], the “rosette reversion by disaccharide” value (FCR3S1 rosettes [1]) is reported as “complete rosette reversion”.
For `CC(=O)N[C@H]1C(O)O[C@H](COS(=O)(=O)O)[C@@H](O)[C@@H]1O` (stereo partly shown) [N-acetylated glucosamine with an O-sulfate ester at C-6], the “rosette disrupting activity of monosaccharides” value (“rosette disrupting activity” for short) (FCR3S1 rosettes [1]) was “Some activity”.
In the case of `O=S(=O)(O)NC1C(O)OC(CO)C(O)C1O` (stereo not shown) [N-sulfated galactosamine], the “rosette disrupting activity” value (FCR3S1 rosettes [1]) is reported as “lacked rosette disrupting activity and none and does not”.
For `O=S(=O)(O)N[C@H]1C(O)O[C@H](CO)[C@@H](O)[C@@H]1O` (stereo partly shown) [N-sulfated glucosamine], the “rosette disrupting activity” value (FCR3S1 rosettes [1]) was “total rosette disruption; also recorded: abolishes rosetting” and the “rosette disrupting activity” value (FCR3S1 rosettes [1]; listed as N-sulfated mono-saccharide glucosamine) was “good anti-rosetting activity”.
With `[O-][I+3]([O-])([O-])O` [Sodium periodate] the “change in rosetting after treatment of whole cultures, FCR3S1” value (from here on “change in rosetting … FCR3S1”) (FCR3S1 rosetting) was “intermediate effect”, the “change in rosetting after treatment of whole cultures, TM 284” value (“change in rosetting … TM 284” for short) (TM 284 rosetting) was “intermediate effect” and the “decrease of rosette binding capacity of treated uninfected RBC” value [2] was 4 fold.
In the case of Chondroitin sulfate B, the “disruptive activity of GAGs on FCR3S1.2 rosettes” value (“disruptive activity of GAGs” for short) (FCR3S1.2 rosettes) is reported as “slight effect only at high concentrations”.
For Chondroitinase ABC, the “change in rosetting … FCR3S1” value (FCR3S1 rosetting) was “had only effect on the rosetting of the TM284 strain”, the “change in rosetting … TM 284” value (TM 284 rosetting) was “had only effect on the rosetting of the TM284 strain” and the “binding capacity of treated uninfected RBC, FCR3S1” value (FCR3S1 rosettes [3]) was “unaffected”. For the same molecule, the “decrease of binding capacity of treated uninfected RBC, TM 284” value (TM 284 rosettes [4]) was “two fold decrease”.
With chondroitin sulfate the “sensitivity of TM 284 rosettes to the compound” value (“sensitivity of TM 284 rosettes” below) (TM 284 rosettes [5]) was “relatively higher sensitivity”, the “inhibition of DBL-1-GST binding to heparin-sepharose” value (“inhibition … to heparin-sepharose” for short) [6] was “but not with chondroitin sulfate” and the “sensitivity of FCR3S1 rosettes to the compound” value (“sensitivity of FCR3S1 rosettes” below) (FCR3S1 rosettes [1]) was “little or no effect”. For the same molecule, the “relative effectiveness as rosette disrupter on the whole collection of wild isolates” value (“relative effectiveness” for short) [7] was “the least effective”.
For chondroitin sulfate A, the “disruptive activity of GAGs” value (FCR3S1.2 rosettes) was “neither chondroitin sulfate A, keratan sulfate, nor hyaluronic acid had any effect”.
For chymotrypsin, the “change in rosetting … FCR3S1” value (FCR3S1 rosetting) was “rosetting was abolished completely” and the “change in rosetting … TM 284” value (TM 284 rosetting) was “rosetting was abolished completely”.
In the case of dermatan sulfate, the “sensitivity of TM 284 rosettes” value (TM 284 rosettes [5]) is reported as “relatively higher sensitivity”, the “sensitivity of FCR3S1 rosettes” value (FCR3S1 rosettes [1]) is reported as “little or no effect” and the “relative effectiveness” value [7] is reported as “intermediate position”.
For dextran sulfate, the “rosette disruption of wild / fresh isolates” value [7] was “much less effective that GAGs in most of the strains” and the “relative effectiveness” value [7] was “intermediate position”.
With fucoidan the “rosette disruption of wild / fresh isolates” value [7] was “strong rosette disrupter; also recorded: disrupted rosettes of almost all fresh isolates” and the “relative effectiveness” value [7] was “most effective rosette disrupter for most isolates”.
In the case of heparan sulfate, the “inhibition of DBL-1-GST binding to erythrocytes” value [8] is reported as “could be inhibited with small amounts”, the “sensitivity of TM 284 rosettes” value (TM 284 rosettes [5]) is reported as “less sensitive” and the “inhibition … to heparin-sepharose” value [6] is reported as “dose-dependently be competed out”. The “sensitivity of FCR3S1 rosettes” value (FCR3S1 rosettes [1]) was “high sensitivity”, the “disruptive activity of GAGs” value (FCR3S1.2 rosettes) was “sensitive” and the “relative effectiveness” value [7] was “intermediate position”.
With heparin the “inhibition of DBL-1-GST binding to erythrocytes” value [8] was “could be inhibited with small amounts”, the rosettes disrupted (TM 284 rosettes [5]; at 1 mg/ml (not shown)) was 80% and the “sensitivity of TM 284 rosettes” value (TM 284 rosettes [5]) was “less sensitive”. The “inhibition … to heparin-sepharose” value [6] was “dose-dependently be competed out”, the “fresh isolates whose rosettes were disrupted” value ([9]; 54 fresh isolates) was 50% and the “number of fresh isolates whose rosettes were disrupted” value ([9]; out of 54 fresh isolates) was 27. For the same molecule, the “sensitivity of FCR3S1 rosettes” value (FCR3S1 rosettes [1]) was “high sensitivity”, the “efficiency of heparin chain relative to disaccharide I-S, weight basis” value (FCR3S1 rosettes [1]; heparin 1 mg/ml vs I-S 30 mM) was “around 20 fold” and the “efficiency of heparin chain relative to disaccharide I-S, molar basis” value (FCR3S1 rosettes [1]; heparin ≃70 μM vs I-S 30 mM) was “around 500 fold”. For the same molecule, the “disruptive activity of GAGs” value (FCR3S1.2 rosettes) was “sensitive” and the “relative effectiveness” value [7] was “intermediate position”.
In the case of hyaluronic acid, the “disruptive activity of GAGs” value (FCR3S1.2 rosettes) is reported as “neither chondroitin sulfate A, keratan sulfate, nor hyaluronic acid had any effect”.
With keratan sulfate the “disruptive activity of GAGs” value (FCR3S1.2 rosettes) was “neither chondroitin sulfate A, keratan sulfate, nor hyaluronic acid had any effect”.
For trypsin, the “change in rosetting … FCR3S1” value (FCR3S1 rosetting) was “rosetting was abolished completely” and the “change in rosetting … TM 284” value (TM 284 rosetting) was “rosetting was abolished completely”.
